# Where two headings read alike, the source gives them in different places.
# Assays:
# hERG [1] = target: T1, hERG (Homo sapiens, UniProt Q12809); experiment: Automated patch clamp, hERG current block (consensus step-ramp protocol); conditions: site_platform s14_p1
# late hNav1.5 = target: T2, late hNav1.5 (Homo sapiens, UniProt Q14524); experiment: Automated patch clamp, late hNav1.5 current block (ATX-II activated); type: cell-based; conditions: for IC50: read-out: log IC50, late hNav1.5 inhibition (converted)
# T2 construct: expressed in transfected cells; host or cells: HEK293 or CHO, depending on site
# Experimental: However, all external solutions contained 30 nM ATX-II in order to activate late current. Late current was measured at its maximum during the repolarizing ramp.
# (§1) Concentration-response relationships for each test article were independently investigated, i.e., each cell received only one test article, typically evaluating multiple concentrations in a cumulative fashion (lowest to highest concentrations). However, some platforms tested only one concentration per well. Each concentration response was based on a minimum of four concentrations, with a minimum of three wells used for each concentration. In cases of high variability, more cells per concentration were recorded. Prior to drug addition, cells received an addition of vehicle to measure non-test article-related effects such as addition artifacts. At the end of the experiment, a supramaximal concentration of a known inhibitory reference compound was applied to assess leak current and appropriate responsiveness of the test system.
# (§2) The steady state current at each concentration was used to determine the concentration-response relationships. Mean concentration-response data were fitted to a standard sigmoidal four-parameter logistic equation (GraphPad Prism 7; GraphPad Inc., La Jolla, CA) of the form: Y=Bottom+(Top−Bottom)/(1+10^∧(LogIC50−X)∗HillSlope) where Y is the current inhibition (in % of pre-drug control), X is the logarithm of drug concentration, and IC50 is the drug concentration producing half-maximal current inhibition. Curve fitting was performed using the following constraints: Top = 100%, Bottom = 0%, Hill Slope <2. No curve fitting was performed in cases with an obvious lack of a concentration-dependent current inhibition and/or small effect size (approximately ≤20%).
# [2] = based on CiPA evaluations; cited from earlier work
# peak hNav1.5 = target: T3, peak hNav1.5 (Homo sapiens, UniProt Q14524); experiment: Automated patch clamp, peak hNav1.5 current block; type: cell-based
# T3 construct: expressed in transfected cells; host or cells: HEK293 or CHO, depending on site
# T3 sequence (Q14524 whole entry): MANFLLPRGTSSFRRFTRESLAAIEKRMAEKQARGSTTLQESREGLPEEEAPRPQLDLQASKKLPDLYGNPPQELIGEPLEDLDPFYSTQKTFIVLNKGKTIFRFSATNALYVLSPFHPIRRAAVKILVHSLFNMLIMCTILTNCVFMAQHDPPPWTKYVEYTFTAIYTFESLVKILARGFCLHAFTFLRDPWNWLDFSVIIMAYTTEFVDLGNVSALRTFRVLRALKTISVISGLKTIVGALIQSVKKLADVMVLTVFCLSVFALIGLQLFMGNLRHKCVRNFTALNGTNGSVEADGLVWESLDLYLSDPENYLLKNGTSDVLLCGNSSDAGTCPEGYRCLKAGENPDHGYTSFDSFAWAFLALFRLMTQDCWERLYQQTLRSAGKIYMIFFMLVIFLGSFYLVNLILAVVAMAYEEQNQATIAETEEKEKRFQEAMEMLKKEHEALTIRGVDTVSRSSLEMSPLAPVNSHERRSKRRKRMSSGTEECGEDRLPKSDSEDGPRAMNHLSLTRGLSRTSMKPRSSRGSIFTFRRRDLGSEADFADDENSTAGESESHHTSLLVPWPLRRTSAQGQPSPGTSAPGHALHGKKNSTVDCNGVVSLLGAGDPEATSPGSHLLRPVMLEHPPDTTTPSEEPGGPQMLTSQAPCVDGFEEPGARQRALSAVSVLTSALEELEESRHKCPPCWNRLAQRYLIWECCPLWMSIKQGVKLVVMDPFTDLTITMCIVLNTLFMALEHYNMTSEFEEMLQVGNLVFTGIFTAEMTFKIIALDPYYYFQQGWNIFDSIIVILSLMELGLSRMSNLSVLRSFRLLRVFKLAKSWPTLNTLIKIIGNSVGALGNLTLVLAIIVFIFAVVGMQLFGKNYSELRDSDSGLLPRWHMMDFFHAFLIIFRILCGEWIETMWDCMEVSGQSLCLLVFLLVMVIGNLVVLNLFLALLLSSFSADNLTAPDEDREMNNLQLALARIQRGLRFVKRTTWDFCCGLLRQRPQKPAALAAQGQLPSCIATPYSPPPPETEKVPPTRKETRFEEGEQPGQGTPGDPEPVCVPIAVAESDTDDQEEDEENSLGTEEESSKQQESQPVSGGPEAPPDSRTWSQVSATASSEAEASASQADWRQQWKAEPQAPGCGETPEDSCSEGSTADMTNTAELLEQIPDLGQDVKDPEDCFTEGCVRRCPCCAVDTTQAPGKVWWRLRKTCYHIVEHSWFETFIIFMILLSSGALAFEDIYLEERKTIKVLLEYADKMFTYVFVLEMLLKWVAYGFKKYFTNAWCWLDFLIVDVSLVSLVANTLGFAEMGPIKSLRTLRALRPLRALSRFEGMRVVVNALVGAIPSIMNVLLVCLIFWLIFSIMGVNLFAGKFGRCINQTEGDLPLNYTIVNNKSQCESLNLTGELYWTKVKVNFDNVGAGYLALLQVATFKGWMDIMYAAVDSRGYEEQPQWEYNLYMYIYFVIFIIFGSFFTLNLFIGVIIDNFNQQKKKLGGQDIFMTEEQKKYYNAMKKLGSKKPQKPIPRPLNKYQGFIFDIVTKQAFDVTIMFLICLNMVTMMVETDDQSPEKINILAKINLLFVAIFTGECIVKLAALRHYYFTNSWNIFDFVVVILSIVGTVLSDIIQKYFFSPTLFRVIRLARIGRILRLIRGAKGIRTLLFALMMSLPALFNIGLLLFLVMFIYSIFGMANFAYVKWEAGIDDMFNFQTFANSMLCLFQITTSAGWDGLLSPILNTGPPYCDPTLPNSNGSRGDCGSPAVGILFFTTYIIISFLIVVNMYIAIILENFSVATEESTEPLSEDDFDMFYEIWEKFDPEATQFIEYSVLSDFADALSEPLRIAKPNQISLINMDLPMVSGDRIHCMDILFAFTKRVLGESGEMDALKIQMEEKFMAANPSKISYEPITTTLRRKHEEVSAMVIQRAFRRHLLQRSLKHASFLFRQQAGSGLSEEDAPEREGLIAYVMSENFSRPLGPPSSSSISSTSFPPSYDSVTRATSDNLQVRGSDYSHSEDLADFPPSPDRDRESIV
# Experimental: Peak current was measured during the depolarizing step to −15 mV. Leak current was measured after applying a saturating concentration of a blocker such as lidocaine (2 mM) at the end of each experiment to completely block hNav1.5 current.
# as §1, §2
# hERG [3] = target: T1, hERG; experiment: Automated patch clamp, hERG current block, Milnes protocol (site s06); type: cell-based; parameters: expressed in transfected cells; host or cells: HEK293 or CHO, depending on site (site s06, Milnes protocol: HEK293); conditions: s06_p4, HEK293, 22–24 °C
# Text: Thus, a single test site (s06) elicited hERG current with a 10-s depolarizing voltage step from −80 mV to 0 mV every 25 s (Milnes protocol, see Milnes et al.[14]).
# as §2
# This protocol consists of a set of two 25-s-long pulse protocols, with one protocol (“Pulse”) containing a prolonged 10-s-long depolarizing test pulse (0 mV) followed by a 14-s-long return pulse to −80 mV, and a second protocol “No-Pulse” consisting of the same pulse structure without the depolarizing test pulse[18].
# [4] = site_platform s06_p4, 1.00E-05 mol/L
# [5] = site_platform s06_p4, 3.00E-07 mol/L
# [6] = site_platform s07_p6, 1.00E-05 mol/L
# [7] = site_platform s07_p6, 3.00E-07 mol/L
# [8] = site_platform s13_p2, 1.00E-05 mol/L
# [9] = site_platform s13_p2, 3.00E-07 mol/L
# [10] = site_platform s14_p1, 1.00E-05 mol/L
# [11] = site_platform s14_p1, 3.00E-07 mol/L
# T1 sequence (Q12809 whole entry): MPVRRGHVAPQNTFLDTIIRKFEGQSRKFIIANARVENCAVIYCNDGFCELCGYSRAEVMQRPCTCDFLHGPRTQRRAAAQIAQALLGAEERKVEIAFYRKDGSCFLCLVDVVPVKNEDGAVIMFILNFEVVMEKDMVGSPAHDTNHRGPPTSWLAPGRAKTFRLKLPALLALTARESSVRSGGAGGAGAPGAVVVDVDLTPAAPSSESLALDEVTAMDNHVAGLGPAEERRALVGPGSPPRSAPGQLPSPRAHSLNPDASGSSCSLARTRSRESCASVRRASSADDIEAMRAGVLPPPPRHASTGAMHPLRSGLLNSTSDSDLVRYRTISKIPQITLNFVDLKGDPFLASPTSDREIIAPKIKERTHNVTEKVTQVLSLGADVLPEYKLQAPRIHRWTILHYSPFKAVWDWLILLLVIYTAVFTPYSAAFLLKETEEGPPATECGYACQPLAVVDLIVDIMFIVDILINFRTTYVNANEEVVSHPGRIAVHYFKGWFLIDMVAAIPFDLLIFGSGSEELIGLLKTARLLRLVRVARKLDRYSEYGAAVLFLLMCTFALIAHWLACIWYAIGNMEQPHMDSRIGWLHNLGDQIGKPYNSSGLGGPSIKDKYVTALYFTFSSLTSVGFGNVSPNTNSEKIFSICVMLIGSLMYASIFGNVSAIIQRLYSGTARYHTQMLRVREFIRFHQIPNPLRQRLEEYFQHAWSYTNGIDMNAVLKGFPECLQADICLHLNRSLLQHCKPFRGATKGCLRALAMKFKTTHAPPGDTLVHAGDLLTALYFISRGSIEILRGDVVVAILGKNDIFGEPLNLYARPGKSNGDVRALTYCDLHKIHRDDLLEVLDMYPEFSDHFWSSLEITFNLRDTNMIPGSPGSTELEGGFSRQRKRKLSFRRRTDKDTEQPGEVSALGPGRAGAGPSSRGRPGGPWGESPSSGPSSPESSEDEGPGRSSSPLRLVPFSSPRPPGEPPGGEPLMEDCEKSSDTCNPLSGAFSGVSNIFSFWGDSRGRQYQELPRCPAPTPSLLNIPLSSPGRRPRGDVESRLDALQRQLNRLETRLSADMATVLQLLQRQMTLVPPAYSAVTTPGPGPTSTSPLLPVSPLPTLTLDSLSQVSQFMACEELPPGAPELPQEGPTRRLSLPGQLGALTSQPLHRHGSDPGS
structure (smiles),measurement,setting,value
"Cc1nccn1CC1CCc2c(c3ccccc3n2C)C1=O (centres unmarked) [ond, ondansetron]","nH (Hill slope), hERG K+ current inhibition",hERG [1],0.47
same,"nH, Hill slope, late hNav1.5 inhibition",late hNav1.5; site_platform s06_p4,1.28
same,"Late hNav1.5 Na+ current inhibition, Mean",late hNav1.5; [4],61.7%
same,"Late hNav1.5 Na+ current inhibition, Mean",late hNav1.5; [5],0.5%
same,IC50,late hNav1.5; site_platform s06_p4,6.92 µM
same,"nH, Hill slope, late hNav1.5 inhibition",late hNav1.5; site_platform s07_p6,1.57
same,"Late hNav1.5 Na+ current inhibition, Mean",late hNav1.5; [6],47.6%
same,"Late hNav1.5 Na+ current inhibition, Mean",late hNav1.5; [7],-14.8%
same,IC50,late hNav1.5; site_platform s07_p6,10.2 µM
same,"log IC50, late hNav1.5 inhibition",late hNav1.5; site_platform s13_p2,no inh.
same,"Late hNav1.5 Na+ current inhibition, Mean",late hNav1.5; [8],20.9%
same,"Late hNav1.5 Na+ current inhibition, Mean",late hNav1.5; [9],9.2%
same,"log IC50, late hNav1.5 inhibition",late hNav1.5; site_platform s14_p1,no inh.
same,"Late hNav1.5 Na+ current inhibition, Mean",late hNav1.5; [10],40.9%
same,"Late hNav1.5 Na+ current inhibition, Mean",late hNav1.5; [11],20.2%
same,TdP Risk Category,[2],Intermediate
same,peak hNav1.5 Na+ current inhibition (result in words),"peak hNav1.5; no inhibition = no obvious concentration-dependent current block and/or no curve fitting performed, all sites",no inhibition
same,"log IC50, peak hNav1.5 Na+ current inhibition",peak hNav1.5; site_platform s01_p1,no inh.
same,"Peak hNav1.5 Na+ current inhibition, Mean","peak hNav1.5; site_platform s01_p1, 1.00E-05 mol/L",56.4%
same,"Peak hNav1.5 Na+ current inhibition, Mean","peak hNav1.5; site_platform s01_p1, 3.00E-07 mol/L",31.6%
same,"log IC50, peak hNav1.5 Na+ current inhibition",peak hNav1.5; site_platform s02_p2,no inh.
same,"Peak hNav1.5 Na+ current inhibition, Mean","peak hNav1.5; site_platform s02_p2, 1.00E-05 mol/L",9.4%
same,"Peak hNav1.5 Na+ current inhibition, Mean","peak hNav1.5; site_platform s02_p2, 3.00E-07 mol/L",1.4%
same,"log IC50, peak hNav1.5 Na+ current inhibition",peak hNav1.5; site_platform s04_p3,no inh.
same,"Peak hNav1.5 Na+ current inhibition, Mean","peak hNav1.5; site_platform s04_p3, 1.00E-05 mol/L",19.5%
same,"Peak hNav1.5 Na+ current inhibition, Mean","peak hNav1.5; site_platform s04_p3, 3.00E-07 mol/L",4.4%
same,"log IC50, peak hNav1.5 Na+ current inhibition",peak hNav1.5; site_platform s06_p4,no inh.
same,"Peak hNav1.5 Na+ current inhibition, Mean",peak hNav1.5; [4],19.0%
same,"Peak hNav1.5 Na+ current inhibition, Mean",peak hNav1.5; [5],0.4%
same,"log IC50, peak hNav1.5 Na+ current inhibition",peak hNav1.5; site_platform s07_p6,no inh.
same,"Peak hNav1.5 Na+ current inhibition, Mean",peak hNav1.5; [6],17.1%
same,"Peak hNav1.5 Na+ current inhibition, Mean",peak hNav1.5; [7],1.7%
same,"log IC50, peak hNav1.5 inhibition",peak hNav1.5; site_platform s10_p3,no inh.
same,"Peak hNav1.5 Na+ current inhibition, Mean","peak hNav1.5; site_platform s10_p3, 1.00E-05 mol/L",20.6%
same,"Peak hNav1.5 Na+ current inhibition, Mean","peak hNav1.5; site_platform s10_p3, 3.00E-07 mol/L",0.1%
same,"log IC50, peak hNav1.5 inhibition",peak hNav1.5; site_platform s11_p1,no inh.
same,"Peak hNav1.5 Na+ current inhibition, Mean","peak hNav1.5; site_platform s11_p1, 1.00E-05 mol/L",15.2%
same,"Peak hNav1.5 Na+ current inhibition, Mean","peak hNav1.5; site_platform s11_p1, 3.00E-07 mol/L",6.1%
same,"log IC50, peak hNav1.5 inhibition",peak hNav1.5; site_platform s12_p2,no inh.
same,"Peak hNav1.5 Na+ current inhibition, Mean","peak hNav1.5; site_platform s12_p2, 1.00E-05 mol/L",12.2%
same,"Peak hNav1.5 Na+ current inhibition, Mean","peak hNav1.5; site_platform s12_p2, 3.00E-07 mol/L",3.0%
same,"log IC50, peak hNav1.5 inhibition",peak hNav1.5; site_platform s13_p2,no inh.
same,"Peak hNav1.5 Na+ current inhibition, Mean",peak hNav1.5; [8],7.0%
same,"Peak hNav1.5 Na+ current inhibition, Mean",peak hNav1.5; [9],-3.4%
same,"log IC50, peak hNav1.5 inhibition",peak hNav1.5; site_platform s14_p1,no inh.
same,"Peak hNav1.5 Na+ current inhibition, Mean",peak hNav1.5; [10],21.3%
same,"Peak hNav1.5 Na+ current inhibition, Mean",peak hNav1.5; [11],3.9%
same,"log IC50, peak hNav1.5 inhibition",peak hNav1.5; site_platform s15_p1,no inh.
same,"Peak hNav1.5 Na+ current inhibition, Mean","peak hNav1.5; site_platform s15_p1, 1.00E-05 mol/L",43.9%
same,"Peak hNav1.5 Na+ current inhibition, Mean","peak hNav1.5; site_platform s15_p1, 3.00E-07 mol/L",11.8%
same,"log IC50, peak hNav1.5 inhibition",peak hNav1.5; site_platform s16_p3,no inh.
same,"Peak hNav1.5 Na+ current inhibition, Mean","peak hNav1.5; site_platform s16_p3, 1.00E-05 mol/L",14.4%
same,"Peak hNav1.5 Na+ current inhibition, Mean","peak hNav1.5; site_platform s16_p3, 3.00E-07 mol/L",2.8%
same,"log IC50, peak hNav1.5 inhibition",peak hNav1.5; site_platform s17_p1,no inh.
same,"Peak hNav1.5 Na+ current inhibition, Mean","peak hNav1.5; site_platform s17_p1, 1.00E-05 mol/L",33.4%
same,"Peak hNav1.5 Na+ current inhibition, Mean","peak hNav1.5; site_platform s17_p1, 3.00E-07 mol/L",-17.0%
same,"log IC50, peak hNav1.5 inhibition",peak hNav1.5; site_platform s18_p1,no inh.
same,"Peak hNav1.5 Na+ current inhibition, Mean","peak hNav1.5; site_platform s18_p1, 1.00E-05 mol/L",29.7%
same,"Peak hNav1.5 Na+ current inhibition, Mean","peak hNav1.5; site_platform s18_p1, 3.00E-07 mol/L",27.5%
same,"log IC50, peak hNav1.5 inhibition",peak hNav1.5; site_platform s19_p3,no inh.
same,"Peak hNav1.5 Na+ current inhibition, Mean","peak hNav1.5; site_platform s19_p3, 1.00E-05 mol/L",24.0%
same,"Peak hNav1.5 Na+ current inhibition, Mean","peak hNav1.5; site_platform s19_p3, 3.00E-07 mol/L",3.5%
same,"hERG K+ current nH, Hill slope",hERG [3],1.05
same,"hERG K+ current inhibition, Mean, at maximal concentration","hERG [3]; max conc [mol/L]: bep 3.00E-07, cpz 3.00E-06, cis 3.00E-07, dil 1.00E-04, dof 1.00E-07, mex 1.00E-04, ond 1.00E-05, qui 1.00E-05, ran 1.00E-04, sot 3.00E-04, ter 3.00E-07, ver 1.00E-06",95.5%
same,"hERG K+ current inhibition, Mean, at minimal concentration","hERG [3]; min conc [mol/L]: bep 1.00E-08, cpz 1.00E-07, cis 1.00E-09, dil 3.00E-06, dof 1.00E-09, mex 1.00E-06, ond 3.00E-07, qui 1.00E-07, ran 3.00E-06, sot 1.00E-05, ter 1.00E-08, ver 3.00E-08",25.3%

# — article PMC7101356, “Cross-site and cross-platform variability of automated patch clamp assessments of drug effects on human cardiac currents in recombinant cells” (Scientific Reports, 2020)
